Results as given in PubChem BioAssay AID1963966 (Molecular Pharmacology Branch, DTP, NCI, 2024).

Tested on: 935938-334-R-J1-PDC spheroids with HUVEC/MSC, viability
Assay: Anticancer human tumor 935938-334-R-J1-PDC patient-derived small intestine adenocarcinoma cell line growth inhibition [PI3K]
Conditions: for IC50: curve of first compound; for viability, T/C: stronger effect = lower value; active = viability on the fitted dose curve at most 10% of control; inactive = the rest
Outline: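 High-throughput combination screen: PI3K inhibitors crossed with targeted small molecules on complex spheroids of tumor cells, HUVEC and MSCs at 37 degrees C, 5% CO2. Top concentration was at or near clinical Cmax (otherwise 10 microM), with half-log decrements.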

[1] = second compound 0.0316 µM, first compound 0.0316 µM
[2] = second compound 0.0316 µM, first compound 0.1 µM
[3] = second compound 0.0316 µM, first compound 0.316 µM
[4] = second compound 0.0316 µM, first compound 1 µM
[5] = second compound 0.0316 µM, first compound 3.16 µM
[6] = second compound 0.0316 µM, first compound 10 µM
[7] = second compound 0.1 µM, first compound 0.0316 µM
[8] = second compound 0.1 µM, first compound 0.1 µM
[9] = second compound 0.1 µM, first compound 0.316 µM
[10] = second compound 0.1 µM, first compound 1 µM
[11] = second compound 0.1 µM, first compound 3.16 µM
[12] = second compound 0.1 µM, first compound 10 µM
[13] = second compound 0.316 µM, first compound 0.0316 µM
[14] = second compound 0.316 µM, first compound 0.1 µM
[15] = second compound 0.316 µM, first compound 0.316 µM
[16] = second compound 0.316 µM, first compound 1 µM
[17] = second compound 0.316 µM, first compound 3.16 µM
[18] = second compound 0.316 µM, first compound 10 µM
[19] = second compound 1 µM, first compound 0.0316 µM
[20] = second compound 1 µM, first compound 0.1 µM
[21] = second compound 1 µM, first compound 0.316 µM
[22] = second compound 1 µM, first compound 1 µM
[23] = second compound 1 µM, first compound 3.16 µM
[24] = second compound 1 µM, first compound 10 µM
[25] = second compound 3.16 µM, first compound 0.0316 µM
[26] = second compound 3.16 µM, first compound 0.1 µM
[27] = second compound 3.16 µM, first compound 0.316 µM
[28] = second compound 3.16 µM, first compound 1 µM
[29] = second compound 3.16 µM, first compound 3.16 µM
[30] = second compound 3.16 µM, first compound 10 µM
[31] = second compound 10 µM, first compound 0.0316 µM
[32] = second compound 10 µM, first compound 0.1 µM
[33] = second compound 10 µM, first compound 0.316 µM
[34] = second compound 10 µM, first compound 1 µM
[35] = second compound 10 µM, first compound 3.16 µM
[36] = second compound 10 µM, first compound 10 µM
[37] = second compound 0.0316 µM, first compound 0.00316 µM
[38] = second compound 0.0316 µM, first compound 0.01 µM
[39] = second compound 0.1 µM, first compound 0.00316 µM
[40] = second compound 0.1 µM, first compound 0.01 µM
[41] = second compound 0.316 µM, first compound 0.00316 µM
[42] = second compound 0.316 µM, first compound 0.01 µM
[43] = second compound 1 µM, first compound 0.00316 µM
[44] = second compound 1 µM, first compound 0.01 µM
[45] = second compound 3.16 µM, first compound 0.00316 µM
[46] = second compound 3.16 µM, first compound 0.01 µM
[47] = second compound 10 µM, first compound 0.00316 µM
[48] = second compound 10 µM, first compound 0.01 µM
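Note: compound exposure lasted seven days before viability was read.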
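Throughout, for viability, T/C: percent of vehicle DMSO treated spheroid viability so 100% = untreated.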

CC(C)NCC(C(=O)N1CCN(c2ncnc3c2C(C)CC3O)CC1)c1ccc(Cl)cc1 (stereo not given) + CC(Nc1ncnc2nc[nH]c12)c1cc2cccc(Cl)c2c(=O)n1-c1ccccc1
1.9 µM: IC50 (second compound 10 µM)
inactive: viability, T/C [1] 75.5% | viability, T/C [2] 80% | viability, T/C [3] 72.4% | viability, T/C [4] 64% | viability, T/C [5] 78.6% | viability, T/C [6] 40.6% | viability, T/C [7] 91.7% | viability, T/C [8] 69.4% | viability, T/C [9] 79.6% | viability, T/C [10] 60.5% | viability, T/C [11] 55.1% | viability, T/C [12] 34.1% | viability, T/C [13] 93.1% | viability, T/C [14] 93% | viability, T/C [15] 60.6% | viability, T/C [16] 58% | viability, T/C [17] 65.8% | viability, T/C [18] 42.3% | viability, T/C [19] 100% | viability, T/C [20] 87.3% | viability, T/C [21] 59.5% | viability, T/C [22] 67.2% | viability, T/C [23] 40.5% | viability, T/C [24] 31.4% | viability, T/C [25] 64.6% | viability, T/C [26] 78.1% | viability, T/C [27] 70% | viability, T/C [28] 64.1% | viability, T/C [29] 44.1% | viability, T/C [30] 49.6% | viability, T/C [31] 69.5% | viability, T/C [32] 59.8% | viability, T/C [33] 65.5% | viability, T/C [34] 62% | viability, T/C [35] 40.1% | viability, T/C [36] 40.8%
1.78 µM: IC50 (second compound 1 µM)
3.42 µM: IC50 (second compound 0.1 µM)
6.42 µM: IC50 (second compound 0.316 µM)
2.56 µM: IC50 (second compound 3.16 µM)
7.26 µM: IC50 (second compound 0.0316 µM)

CCN1CCN(Cc2ccc(Nc3ncc(F)c(-c4cc(F)c5nc(C)n(C(C)C)c5c4)n3)nc2)CC1 + CC(Nc1ncnc2nc[nH]c12)c1cc2cccc(Cl)c2c(=O)n1-c1ccccc1
0.0589 µM: IC50 (second compound 10 µM)
inactive: viability, T/C [37] 90.2% | viability, T/C [38] 85.8% | viability, T/C [1] 71.4% | viability, T/C [2] 58.9% | viability, T/C [3] 46.8% | viability, T/C [4] 37.3% | viability, T/C [39] 95.7% | viability, T/C [40] 92.6% | viability, T/C [7] 73.8% | viability, T/C [8] 62.9% | viability, T/C [9] 41% | viability, T/C [10] 48.2% | viability, T/C [41] 79.4% | viability, T/C [42] 85% | viability, T/C [13] 70.3% | viability, T/C [14] 53.4% | viability, T/C [15] 49.1% | viability, T/C [16] 35.2% | viability, T/C [43] 77% | viability, T/C [44] 86% | viability, T/C [19] 66.7% | viability, T/C [20] 64.4% | viability, T/C [21] 43.1% | viability, T/C [22] 31.5% | viability, T/C [45] 74.3% | viability, T/C [46] 68% | viability, T/C [25] 57.5% | viability, T/C [26] 56.8% | viability, T/C [27] 43.6% | viability, T/C [28] 40.1% | viability, T/C [47] 59.3% | viability, T/C [48] 82.1% | viability, T/C [31] 63.4% | viability, T/C [32] 39% | viability, T/C [33] 38.3% | viability, T/C [34] 34.6%
0.223 µM: IC50 (second compound 0.0316 µM)
0.185 µM: IC50 (second compound 0.316 µM)
0.164 µM: IC50 (second compound 3.16 µM)
0.215 µM: IC50 (second compound 1 µM)
0.246 µM: IC50 (second compound 0.1 µM)

Cn1ncc(Cl)c1-c1cc(C(=O)NC(CN)Cc2cccc(F)c2)sc1Cl (stereo not given) + CC(Nc1ncnc2nc[nH]c12)c1cc2cccc(Cl)c2c(=O)n1-c1ccccc1
> 10 µM: IC50 (second compound 0.0316 µM) | IC50 (second compound 0.1 µM)
2.71 µM: IC50 (second compound 1 µM)
0.271 µM: IC50 (second compound 10 µM)
3.11 µM: IC50 (second compound 0.316 µM)
1.76 µM: IC50 (second compound 3.16 µM)
inactive: viability, T/C [1] 73% | viability, T/C [2] 91.4% | viability, T/C [3] 65.3% | viability, T/C [4] 65.4% | viability, T/C [5] 54.6% | viability, T/C [6] 51.3% | viability, T/C [7] 92.6% | viability, T/C [8] 88.9% | viability, T/C [9] 88.1% | viability, T/C [10] 63.2% | viability, T/C [11] 56.8% | viability, T/C [12] 58.1% | viability, T/C [13] 104% | viability, T/C [14] 128% | viability, T/C [15] 75% | viability, T/C [16] 78.4% | viability, T/C [17] 49.3% | viability, T/C [18] 34% | viability, T/C [19] 73.5% | viability, T/C [20] 97.8% | viability, T/C [21] 73.1% | viability, T/C [22] 61.6% | viability, T/C [23] 51.3% | viability, T/C [24] 36.3% | viability, T/C [25] 72.2% | viability, T/C [26] 74.1% | viability, T/C [27] 61.5% | viability, T/C [28] 47.9% | viability, T/C [29] 52.5% | viability, T/C [30] 33.2% | viability, T/C [31] 73.2% | viability, T/C [32] 83.9% | viability, T/C [33] 45.5% | viability, T/C [34] 52.7% | viability, T/C [35] 39.4% | viability, T/C [36] 34.5%

Cn1nccc1Nc1nccc(-c2ccn(C(CO)c3ccc(Cl)c(F)c3)c(=O)c2)n1 (stereo not given) + CC(Nc1ncnc2nc[nH]c12)c1cc2cccc(Cl)c2c(=O)n1-c1ccccc1
0.767 µM: IC50 (second compound 0.0316 µM)
0.529 µM: IC50 (second compound 3.16 µM)
0.143 µM: IC50 (second compound 10 µM)
1.28 µM: IC50 (second compound 1 µM)
1.46 µM: IC50 (second compound 0.1 µM)
inactive: viability, T/C [1] 85.2% | viability, T/C [2] 79.2% | viability, T/C [3] 66.3% | viability, T/C [4] 46.7% | viability, T/C [5] 31.1% | viability, T/C [6] 38.6% | viability, T/C [7] 99.6% | viability, T/C [8] 91.1% | viability, T/C [9] 73% | viability, T/C [10] 54.4% | viability, T/C [11] 41.4% | viability, T/C [12] 33.6% | viability, T/C [13] 87.9% | viability, T/C [14] 101% | viability, T/C [15] 63.2% | viability, T/C [16] 56.2% | viability, T/C [17] 41.1% | viability, T/C [18] 28.3% | viability, T/C [19] 96.2% | viability, T/C [20] 81.3% | viability, T/C [21] 57.1% | viability, T/C [22] 61% | viability, T/C [23] 39.6% | viability, T/C [24] 27.9% | viability, T/C [25] 74.1% | viability, T/C [26] 77.8% | viability, T/C [27] 55.3% | viability, T/C [28] 43.1% | viability, T/C [29] 32.4% | viability, T/C [30] 33.6% | viability, T/C [31] 63.4% | viability, T/C [32] 53.5% | viability, T/C [33] 43.8% | viability, T/C [34] 33.6% | viability, T/C [35] 32.6% | viability, T/C [36] 25.3%
1.3 µM: IC50 (second compound 0.316 µM)

Cn1ncnc1[C@H]1c2n[nH]c(=O)c3cc(F)cc(c23)N[C@@H]1c1ccc(F)cc1 + CC(Nc1ncnc2nc[nH]c12)c1cc2cccc(Cl)c2c(=O)n1-c1ccccc1
> 0.1 µM: IC50 (second compound 0.0316 µM) | IC50 (second compound 0.1 µM) | IC50 (second compound 0.316 µM) | IC50 (second compound 1 µM) | IC50 (second compound 3.16 µM) | IC50 (second compound 10 µM)
inactive: viability, T/C (second compound 0.0316 µM, first compound 0.000316 µM) 95.3% | viability, T/C (second compound 0.0316 µM, first compound 0.001 µM) 84.7% | viability, T/C [37] 82.9% | viability, T/C [38] 108% | viability, T/C [1] 102% | viability, T/C [2] 84.3% | viability, T/C (second compound 0.1 µM, first compound 0.000316 µM) 86.7% | viability, T/C (second compound 0.1 µM, first compound 0.001 µM) 84.5% | viability, T/C [39] 91.8% | viability, T/C [40] 80.2% | viability, T/C [7] 85.1% | viability, T/C [8] 88.1% | viability, T/C (second compound 0.316 µM, first compound 0.000316 µM) 109% | viability, T/C (second compound 0.316 µM, first compound 0.001 µM) 85.4% | viability, T/C [41] 83.6% | viability, T/C [42] 97.4% | viability, T/C [13] 81.3% | viability, T/C [14] 83.2% | viability, T/C (second compound 1 µM, first compound 0.000316 µM) 102% | viability, T/C (second compound 1 µM, first compound 0.001 µM) 115% | viability, T/C [43] 86.3% | viability, T/C [44] 48.2% | viability, T/C [19] 93.1% | viability, T/C [20] 87.2% | viability, T/C (second compound 3.16 µM, first compound 0.000316 µM) 98% | viability, T/C (second compound 3.16 µM, first compound 0.001 µM) 71.9% | viability, T/C [45] 90.9% | viability, T/C [46] 70.9% | viability, T/C [25] 83.2% | viability, T/C [26] 84.1% | viability, T/C (second compound 10 µM, first compound 0.000316 µM) 62.7% | viability, T/C (second compound 10 µM, first compound 0.001 µM) 89% | viability, T/C [47] 94.6% | viability, T/C [48] 81.5% | viability, T/C [31] 91.6% | viability, T/C [32] 67.8%
